The test system of series [1] is Bacillus subtilis ATCC 6633. The series can be described thus: MIC by broth dilution (Table 8). Particulars: ATCC6633, 20 h, read-out: Minimum inhibitory concentration. The class given is cell-based. As to the method:
(§1) The MIC values of antibiotic PS-5 sodium salt were determined on various pathogenic microorganisms including resistant strains by the broth dilution method utilizing the BRAIN HEART INFUSION BROTH `Eiken` (EIKEN CHEMICAL CO., LTD.).
(§2) The antibiotic PS-5 sodium salt was dissolved in BRAIN HEART INFUSION BROTH `Eiken` (EIKEN CHEMICAL CO., LTD.) (pH 7.0) at concentration in the range of 5-50 μg/ml, from which appropriate dilution series were made in the same liquid medium. The microorganisms listed in Table 8 were cultivated for 18 hours in BRAIN HEART INFUSION BROTH `Eiken` at 28° C. and inoculated into the said dilution series of antibiotic PS-5 at a final inoculum size of 1×10^5 cells/ml. The cultures were allowed to stand at 35° C. for 20 hours, and then the growth of the microorganisms was read at each dilution of antibiotic PS-5. The minimum inhibitory concentration (MIC) represents the smallest concentration of the antibiotic PS-5 (sodium salt) where no propagation of the relevant microorganism was visually confirmed. As the controls, two known beta-lactam antibiotics, cephaloridine and cefoxitin were dissolved in brain heart infustion broth at pH 7.0 at concentrations ranging from 1 μg/ml to 100 μ g/ml and then diluted to make several dilution series in the above mentioned liquid medium. These samples were treated as described above for the MIC determinations.

The subject of series [2] is Diplococcus pneumoniae Type III. Kind of series: MIC by broth dilution (Table 8). In kind it is cell-based. Particulars: Streptococcus pneumoniae, 20 h, read-out: Minimum inhibitory concentration. As to the method:
as §1, §2
(Dilution methods test growth across graded concentrations, often in twofold steps.)

Series [3] relates to Staphylococcus aureus Bx-1633. Kind of series: MIC by broth dilution (Table 8). In kind it is cell-based. As to conditions: BX1633, 20 h, read-out: Minimum inhibitory concentration. As for the experimental part:
as §1, §2

Series [4] concerns Staphylococcus aureus EDA 209 P. Kind of series: MIC by broth dilution (Table 8). In kind it is cell-based. As to conditions: EDA209P, 20 h, read-out: Minimum inhibitory concentration. As for the experimental part: as §1, §2
For series [5], the system named is Staphylococcus aureus Smith. Kind of series: MIC by broth dilution (Table 8). The class given is cell-based. Particulars: 20 h, read-out: Minimum inhibitory concentration. As for the experimental part:
as §1, §2

The subject of series [6] is Streptococcus pyogenes NY-5. Kind of series: MIC by broth dilution (Table 8). Particulars: NY5, 20 h, read-out: Minimum inhibitory concentration. The class given is cell-based. As to the method:
as §1, §2

In the next series the test system is male ddy mice. In kind it is in vivo. As to conditions: 500 mg/kg intraperitoneally. As for the experimental part: An aqueous solution of the antibiotic PS-5 sodium salt was intraperitoneally administered to male ddy mice (Shizuoka) at the dose of 500 mg/kg.
For series [7], the system named is Alcaligenes faecalis B-326. Kind of series: MIC by broth dilution (Table 13). The class given is cell-based. As to conditions: B326, 20 h. As for the experimental part: (§3) The MIC (minimum inhibitory concentration) values of the compound were determined on various pathogenic microorganisms including several resistant strains, utilizing the broth dilution method in BRAIN HEART INFUSION BROTH `Eiken` (EIKEN CHEMICAL CO., LTD.).
(§4) The results were read after incubation at 35° C. for 20 hours. The minimum inhibitory concentration (MIC) values means the lowest concentration unit of the tritylation product of the antibiotic PS-5 was no growth of the corresponding microorganism was observed under the above described conditions. As the control antibiotics,the solutions of ampicillin and cephaloridine were prepared in BRAIN HEART INFUSION BROTH `Eiken` (pH 7.0) at a concentration of 100 μg/ml and treated same as the test compound of the present invention.

Another series concerns Citrobacter freundii E-9. Kind of series: MIC by broth dilution (Table 13). In kind it is cell-based. As to conditions: E9, 20 h. As to the method:
as §3, §4

The test system of series [8] is Diplococcus pneumoniae Type III. Kind of series: MIC by broth dilution (Table 13). In kind it is cell-based. Particulars: Streptococcus pneumoniae, 20 h. As to the method: as §3, §4
For a further series, the system named is Enterobacter sp. E-8. The series can be described thus: MIC by broth dilution (Table 13). Particulars: SP.E8, 20 h. The class given is cell-based. As to the method:
as §3, §4

Another series relates to Escherichia coli K12. Kind of series: MIC by broth dilution (Table 13). In kind it is cell-based. As to conditions: 20 h. As to the method:
as §3, §4

The subject of series [9] is Klebsiella pneumoniae K-2. The series can be described thus: MIC by broth dilution (Table 13). The class given is cell-based. Particulars: K2, 20 h. As for the experimental part:
as §3, §4

A further series concerns Proteus mirabilis P-6. The series can be described thus: MIC by broth dilution (Table 13). In kind it is cell-based. As to conditions: P6, 20 h. As for the experimental part: as §3, §4
For another series, the system named is Proteus rettgeri P-7. The series can be described thus: MIC by broth dilution (Table 13). The class given is cell-based. Particulars: Providencia rettgeri, P7, 20 h. As to the method:
as §3, §4

A further series has as its system Proteus vulgaris P-5. The series can be described thus: MIC by broth dilution (Table 13). In kind it is cell-based. As to conditions: P5, 20 h. As for the experimental part:
as §3, §4

Series [10] relates to Pseudomonas aeruginosa P-1. The series can be described thus: MIC by broth dilution (Table 13). The class given is cell-based. Particulars: P1, 20 h. As to the method: as §3, §4
Another series relates to Sarcina lutea S-19. Kind of series: MIC by broth dilution (Table 13). In kind it is cell-based. Particulars: Micrococcus luteus, S19, 20 h. As for the experimental part:
as §3, §4

Series [11] deals with Staphylococcus aureus FDA 209p. The series can be described thus: MIC by broth dilution (Table 13). Particulars: FDA209P, 20 h. In kind it is cell-based. As for the experimental part:
as §3, §4

Series [12] relates to Staphylococcus aureus Smith. Kind of series: MIC by broth dilution (Table 13). In kind it is cell-based. As to conditions: 20 h. As for the experimental part:
as §3, §4

Series [13] relates to Streptococcus pyogenes NY-5. Kind of series: MIC by broth dilution (Table 13). The class given is cell-based. Particulars: NY5, 20 h. As to the method: as §3, §4

Structures are written as SMILES. In brackets after ≈: the same amount, converted by molar mass. Where two headings read alike, the source gives them in different places.

For the compound `CCC1C(=O)N2C(C(=O)O)=C(SCCNC(C)=O)CC12` (single isomer, unassigned) [Antibiotic PS-5], the MIC in series [1] (Bacillus subtilis ATCC 6633) amounted to 0.16 µg/mL (≈ 0.536 µM); in series [2] (Diplococcus pneumoniae Type III, 10% horse blood supplemented into the medium), 0.02 µg/mL (≈ 0.067 µM); in [3] (Staphylococcus aureus Bx-1633, PS-5 as sodium salt) it was 0.16 µg/mL; in series [4] (Staphylococcus aureus EDA 209 P, PS-5 as sodium salt), 0.16 µg/mL; in series [5] (Staphylococcus aureus Smith, PS-5 as sodium salt) it was 0.31 µg/mL; in series [6] (Streptococcus pyogenes NY-5, 10% horse blood supplemented into the medium), 0.08 µg/mL (≈ 0.268 µM). In addition, the “Deaths after intraperitoneal administration” value with male ddy mice is listed as “does not provoke any dead”.

As to `CCC1C(=O)N2C(C(=O)OC(c3ccccc3)(c3ccccc3)c3ccccc3)=C(SCCNC(C)=O)CC12` (single isomer, unassigned) [Trityl PS-5], the MIC in series [7] (Alcaligenes faecalis B-326, read-out: MIC) was 1.25 µg/mL (≈ 2.31 µM); in the series with Citrobacter freundii E-9 (Citrobacter freundii E-9, read-out: MIC), 5 µg/mL (≈ 9.25 µM); in [8] (Diplococcus pneumoniae Type III, read-out: MIC) it was 0.08 µg/mL (≈ 0.148 µM); with Enterobacter sp. E-8 (Enterobacter sp. E-8, read-out: MIC), 10 µg/mL (≈ 18.5 µM); against Escherichia coli K12 it was 5.37 µg/mL (≈ 9.93 µM); in [9] (Klebsiella pneumoniae K-2, read-out: MIC) it was 10.7 µg/mL (≈ 19.8 µM). Besides, the MIC is 21.5 µg/mL (≈ 39.8 µM) with Proteus mirabilis P-6 (Proteus mirabilis P-6, read-out: MIC); 10 µg/mL (≈ 18.5 µM) with Proteus rettgeri P-7 (Proteus rettgeri P-7, read-out: MIC); 21.5 µg/mL (≈ 39.8 µM) with Proteus vulgaris P-5 (Proteus vulgaris P-5, read-out: MIC); above 43 µg/mL in series [10] (Pseudomonas aeruginosa P-1, read-out: MIC); 0.27 µg/mL (≈ 0.499 µM) with Sarcina lutea S-19 (Sarcina lutea S-19, read-out: MIC); 0.17 µg/mL (≈ 0.314 µM) in [11] (Staphylococcus aureus FDA 209p, read-out: MIC). In addition, the MIC in series [12] (Staphylococcus aureus Smith, read-out: MIC) was 0.27 µg/mL (≈ 0.499 µM); in [13] (Streptococcus pyogenes NY-5, read-out: MIC), 0.17 µg/mL (≈ 0.314 µM). For the same compound, the “Deaths after intraperitoneal administration” value in the series with male ddy mice (listed as trityl ester of the antibiotic PS-5, 500 mg/kg) is “did not provoke any dead”; with male ddy mice (listed as trityl ester, 500 mg/kg), “does not provoke any dead”.

As for `O=C(Cc1cccs1)N[C@@H]1C(=O)N2C(C(=O)[O-])=C(C[n+]3ccccc3)CS[C@H]12` [Cephaloridine, cephaloridine], the MIC in series [1] (Bacillus subtilis) worked out at 0.031 µg/mL (≈ 0.0746 µM); in series [2], 0.031 µg/mL (≈ 0.0746 µM); in series [3] (Staphylococcus aureus), 0.031 µg/mL (≈ 0.0746 µM); in series [4] (Staphylococcus aureus), 0.031 µg/mL (≈ 0.0746 µM); in [5] (Staphylococcus aureus) it was 0.031 µg/mL (≈ 0.0746 µM); in series [6] (Streptococcus pyogenes), 0.008 µg/mL (≈ 0.0193 µM). The MIC in series [7] (Alcaligenes faecalis) was 6.25 µg/mL (≈ 15 µM); against Citrobacter freundii E-9 (Citrobacter freundii), above 100 µg/mL; in [8], 0.01 µg/mL (≈ 0.0241 µM); against Enterobacter sp. E-8 (Enterobacter) it was above 100 µg/mL; against Escherichia coli K12, 2.5 µg/mL (≈ 6.02 µM); in series [9] (Klebsiella pneumoniae) it was 10 µg/mL (≈ 24.1 µM). The MIC in the series on Proteus mirabilis P-6 (Proteus mirabilis) was 10 µg/mL (≈ 24.1 µM); in the series with Proteus rettgeri P-7, 50 µg/mL (≈ 120 µM); in the series on Proteus vulgaris P-5 (Proteus vulgaris), above 20 µg/mL; in [10] (Pseudomonas aeruginosa), above 20 µg/mL; in the series on Sarcina lutea S-19 it was 0.05 µg/mL (≈ 0.12 µM); in [11] (Staphylococcus aureus) it was 0.04 µg/mL (≈ 0.0963 µM). The MIC came out at 0.04 µg/mL (≈ 0.0963 µM) in series [12] (Staphylococcus aureus) and 0.01 µg/mL (≈ 0.0241 µM) in [13] (Streptococcus pyogenes).

Values taken from US4318916A, “Antibiotic PS-5 and derivatives having β-lactamase inhibitory activity and production thereof” (Sanraku-Ocean Co., Ltd., priority 1977, dated 1982).
